Results published in the OPERA property sets (Mansouri et al. 2018).

Settings: not given

SMILES | log10 vapour pressure (mmHg) | ready biodegradability | boiling point | melting point | log10 Henry constant (atm·m³/mol) | log10 Koa | log10 Koc (L/kg)
COC(F)(F)C(F)(F)C(F)(F)F | 2.75 |  |  |  |  |  | 
CCCCCCCCC=CCCCCCCCC(=O)OCCS(=O)(=O)[O][Na] |  | readily biodegradable |  |  |  |  | 
CC1C=CC(=O)O1 (centres undefined) |  |  | 209 °C |  |  |  | 
Oc1cccc(Nc2ccccc2)c1 |  |  | 340 °C | 81.5 °C |  |  | 
C=CC(F)(F)Br |  |  | 42 °C |  |  |  | 
O=C(O)c1cncc(C(=O)O)c1 |  |  |  | 324 °C |  |  | 
Cc1cc(O)c2c(c1)C(=O)c1cc(O)cc(O)c1C2=O |  |  |  | 257 °C |  |  | 
O=[N+]([O-])c1ccc(N=C=S)cc1 |  |  |  | 111 °C |  |  | 
COc1ccc(C(=O)O)cc1OC | -3.61 |  |  | 181 °C |  |  | 
O=C(O)c1ccccc1F |  |  |  | 126 °C |  |  | 
NC(=O)/C=C/C(=O)[O-] |  |  |  | 172 °C |  |  | 
O=C1CCCCCCCCC1O (centres undefined) |  |  |  | 42 °C |  |  | 
CCCCOCc1ccccc1 |  |  | 223 °C |  |  |  | 
C[C@@H](Cc1ccccc1)NCCC(c1ccccc1)c1ccccc1 |  |  |  | 36.5 °C |  |  | 
CCCCc1cc(C)ccc1O |  |  | 228 °C | 19 °C |  |  | 
c1ccc(-c2cc(-c3ccccc3)cc(-c3ccccc3)c2)cc1 |  |  | 462 °C | 176 °C |  |  | 
O=C1c2ccccc2C(=O)C1c1ccc(Br)cc1 |  |  |  | 138 °C |  |  | 
CCCCC(C)(CC)CC |  |  | 164 °C |  |  |  | 
CCN(CC)CCCO |  |  | 190 °C |  |  |  | 
CC[N+](=O)[O-] | 1.32 |  | 114 °C | -89.5 °C | -4.32 | 2.88 | 
O=C(C(Cl)Cl)C(Cl)Cl |  |  | 183 °C |  |  |  | 
O=CC1CCCC1 |  |  | 134 °C |  |  |  | 
CCC(O)(COC(N)=O)c1ccccc1 (centres undefined) |  |  |  | 55 °C |  |  | 
CC(C)COC(=O)OCC(C)C |  |  | 190 °C |  |  |  | 
N#Cc1ccccc1C#N |  | not readily biodegradable |  | 140 °C |  |  | 
c1ccc2sc(SN(C3CCCCC3)C3CCCCC3)nc2c1 |  | not readily biodegradable |  | 99.8 °C |  |  | 
CCCC(O)C(C)C (centres undefined) | 0.129 |  | 141 °C |  |  |  | 

SMILES | log10 vapour pressure (mmHg) | ready biodegradability | boiling point | melting point | log10 Henry constant (atm·m³/mol) | log10 Koa | log10 Koc (L/kg)
Cc1cccc(NC=O)c1 |  |  | 290 °C |  |  |  | 
c1ccc2nc(-c3ccc4ccccc4n3)ccc2c1 |  |  |  | 194 °C |  |  | 4.02
OCc1cccnc1 |  |  | 266 °C | -6.5 °C |  |  | 
Oc1ccc2c(c1)CCC2 |  |  | 253 °C | 58 °C |  |  | 3.4
CCC(O)C(Cl)(Cl)Cl (centres undefined) |  |  | 171 °C |  |  |  | 
c1cnc2cccnc2c1 |  |  |  | 75 °C |  |  | 
Nc1c2ccccc2nc2ccccc12 |  |  |  | 241 °C |  |  | 
S=C=Nc1cccc(Br)c1 |  |  | 256 °C |  |  |  | 
COc1ccc2c(c1OC)C(=O)O[C@@H]2[C@H]1c2cc3c(cc2CCN1C)OCO3 |  |  |  | 132 °C |  |  | 
C#CC(=O)OC |  |  | 104 °C |  |  |  | 
CCCN(CCC)CCC | 0.179 |  | 156 °C | -93.5 °C |  |  | 
CC(C=O)Cc1ccc(C(C)(C)C)cc1 (centres undefined) |  | not readily biodegradable |  |  |  |  | 
CC(C)(C)CC(C)(C)c1ccc(OCCOCC[N+](C)(C)Cc2ccccc2)cc1 |  | not readily biodegradable |  |  |  |  | 
Cc1c(Cl)ccc(O)c1Cl |  |  | 236 °C | 58 °C |  |  | 
Clc1ccccc1-c1nnc(-c2ccccc2Cl)nn1 | -9.01 |  |  | 182 °C |  |  | 4.66
CC1CC(OC(=O)C(O)c2ccccc2)CC(C)(C)C1 (centres undefined) |  |  |  | 56 °C |  |  | 
CCOC(=O)c1cnn(C)c1S(=O)(=O)NC(=O)Nc1nc(OC)cc(OC)n1 |  |  |  | 182 °C |  |  | 
Cc1cc2ccoc2cc1C |  |  | 221 °C |  |  |  | 
O=C(Nc1ccc(Cl)c(Cl)c1)c1cc(Cl)ccc1O |  |  |  | 247 °C |  |  | 
Clc1cncc(Cl)n1 |  |  |  | 56.5 °C |  |  | 
Clc1ccc(C(c2ccccc2Cl)C(Cl)Cl)cc1 (centres undefined) | -5.71 |  |  | 77 °C |  |  | 
O=C(O)c1cc(I)cc(I)c1O |  |  |  | 236 °C |  |  | 
C=CC/C=C/C | 2.24 |  | 65 °C | -139 °C |  |  | 
O=[N+]([O-])/N=C1\NCCN1Cc1ccc(Cl)nc1 |  |  |  | 144 °C |  |  | 
O=C(OCC(=O)N1CCCCC1)c1ccccc1 |  |  |  | 88 °C |  |  | 
O=C(O)CCCCCCCF |  |  |  | 35 °C |  |  | 

Same assay, conditions: fish

SMILES | log10 BCF | log10 biotransformation half-life (days)
N#Cc1ccccc1C#N | 0.7 | -0.67
Clc1ccc(C(c2ccccc2Cl)C(Cl)Cl)cc1 (centres undefined) |  | 1.65
